Measured values as given in US8680133B2, “Alkyl indole-3-carbinol-derived antitumor agents” (The Ohio State University Research Foundation, priority 2009, dated 2014).

Assays:
HOP-62 = assay: NCI60 screening, Non-Small Cell Lung Cancer, HOP-62; assay type: cell-based, human
SK-MEL-5 = assay: NCI60 screening, Melanoma, SK-MEL-5; assay type: cell-based, human
HL-60(TB) = assay: NCI60 screening, Leukemia, HL-60(TB); assay type: cell-based, human
OVCAR-8 = assay: NCI60 screening, Ovarian Cancer, OVCAR-8; assay type: cell-based, human
SF-295 = assay: NCI60 screening, CNS Cancer, SF-295; assay type: cell-based, human
SK-MEL-2 = assay: NCI60 screening, Melanoma, SK-MEL-2; assay type: cell-based, human
BT-549 = assay: NCI60 screening, Breast Cancer, BT-549; assay type: cell-based, human
HCT-116 = assay: NCI60 screening, Colon Cancer, HCT-116; assay type: cell-based, human
[1] = test system: human tumor cell lines of the cancer screening panel; assay: NCI 60 cell line screening, whole panel, comparison with OSU-A9; assay type: cell-based; conditions: OSU-A9 data not shown
MDA-MB-231/ATCC = assay: NCI60 screening, Breast Cancer, MDA-MB-231/ATCC; assay type: cell-based, human
[2] = Hematology, serum chemistry, liver weight and food consumption of mice fed the OSU-A9M diet; assay type: in vivo
Excerpt: Further supporting a lack of toxicity with the experimental diet is a preservation of body weight (and liver weight) of mice sacrificed at the conclusion of the 6-week treatment period. 1.3±0.1 g (3.9±0.5%) in drug-treated mice vs. 1.5±0.3 g (4.3±0.7%) in controls; liver percent body weight in parentheses following absolute weight, means±SD, n=7, P=0.1 and 0.5 for absolute and relative values. There was no significant difference in the amount of control or experimental diet consumed by the mice [2.4±0.3 g in drug-treated mice vs 2.5±0.1 g in controls (P=0.5)]. Throughout the treatment period, the drug-treated mice consumed 34.1±4.6 mg OSU-A9M per kg body weight per day, calculated as g diet consumed per day/g body weight×450 (overall mean±SD of weekly means).

KM12 = assay: NCI60 screening, Colon Cancer, KM12; assay type: cell-based, human
SNB-75 = assay: NCI60 screening, CNS Cancer, SNB-75; assay type: cell-based, human
OVCAR-5 = assay: NCI60 screening, Ovarian Cancer, OVCAR-5; assay type: cell-based, human
[3] = Homo sapiens, read-out: LC50 (the source's name)
[4] = 450 ppm in diet, 6-week treatment, mean±SD, n=7
[5] = 450 ppm in diet, 18 to 24 weeks of age, mean±SD, n=5

## Cc1ccc2c(c1)c(CO)cn2S(=O)(=O)c1ccc(Cl)c([N+](=O)[O-])c1 [OSU-A9M, [1-(4-chloro-3-nitro-benzenesulfonyl)-5-methyl-1H-indol-3-yl]-methanol]
HOP-62
  TGI: 3.11E−6
HOP-62; Homo sapiens
  GI50: 1740 nM
HOP-62; [3]
  CC50: 5580 nM
HOP-62; Log10 Concentration −4.0
  Percent Growth: −99%
HOP-62; Log10 Concentration −5.0
  Percent Growth: −100%
HOP-62; Log10 Concentration −6.0
  Percent Growth: 97%
HOP-62; Log10 Concentration −7.0
  Percent Growth: 95%
HOP-62; Log10 Concentration −8.0
  Percent Growth: 98%
SK-MEL-5
  TGI: 2.83E−6
SK-MEL-5; Homo sapiens
  GI50: 1500 nM
SK-MEL-5; [3]
  CC50: 5320 nM
SK-MEL-5; Log10 Concentration −4.0
  Percent Growth: −100%
SK-MEL-5; Log10 Concentration −5.0
  Percent Growth: −100%
SK-MEL-5; Log10 Concentration −6.0
  Percent Growth: 82%
SK-MEL-5; Log10 Concentration −7.0
  Percent Growth: 92%
SK-MEL-5; Log10 Concentration −8.0
  Percent Growth: 96%
HL-60(TB)
  TGI: 4.80E−6
HL-60(TB); Homo sapiens
  GI50: 1550 nM
HL-60(TB); [3]
  CC50: 32500 nM
HL-60(TB); Log10 Concentration −4.0
  Percent Growth: −67%
HL-60(TB); Log10 Concentration −5.0
  Percent Growth: −32%
HL-60(TB); Log10 Concentration −6.0
  Percent Growth: 69%
HL-60(TB); Log10 Concentration −7.0
  Percent Growth: 84%
HL-60(TB); Log10 Concentration −8.0
  Percent Growth: 91%
OVCAR-8
  TGI: 3.95E−6
OVCAR-8; Homo sapiens
  GI50: 1930 nM
OVCAR-8; [3]
  CC50: 8090 nM
OVCAR-8; Log10 Concentration −4.0
  Percent Growth: −84%
OVCAR-8; Log10 Concentration −5.0
  Percent Growth: −65%
OVCAR-8; Log10 Concentration −6.0
  Percent Growth: 96%
OVCAR-8; Log10 Concentration −7.0
  Percent Growth: 101%
OVCAR-8; Log10 Concentration −8.0
  Percent Growth: 97%
SF-295
  TGI: 3.07E−6
SF-295; Homo sapiens
  GI50: 1620 nM
SF-295; [3]
  CC50: 5810 nM
SF-295; Log10 Concentration −4.0
  Percent Growth: −86%
SF-295; Log10 Concentration −5.0
  Percent Growth: −93%
SF-295; Log10 Concentration −6.0
  Percent Growth: 88%
SF-295; Log10 Concentration −7.0
  Percent Growth: 91%
SF-295; Log10 Concentration −8.0
  Percent Growth: 77%
SK-MEL-2
  TGI: 3.04E−6
SK-MEL-2; Homo sapiens
  GI50: 1600 nM
SK-MEL-2; [3]
  CC50: 5780 nM
SK-MEL-2; Log10 Concentration −4.0
  Percent Growth: −93%
SK-MEL-2; Log10 Concentration −5.0
  Percent Growth: −93%
SK-MEL-2; Log10 Concentration −6.0
  Percent Growth: 86%
SK-MEL-2; Log10 Concentration −7.0
  Percent Growth: 96%
SK-MEL-2; Log10 Concentration −8.0
  Percent Growth: 102%
BT-549
  TGI: 3.13E−6
BT-549; Homo sapiens
  GI50: 1670 nM
BT-549; [3]
  CC50: 5890 nM
BT-549; Log10 Concentration −4.0
  Percent Growth: −92%
BT-549; Log10 Concentration −5.0
  Percent Growth: −92%
BT-549; Log10 Concentration −6.0
  Percent Growth: 91%
BT-549; Log10 Concentration −7.0
  Percent Growth: 87%
BT-549; Log10 Concentration −8.0
  Percent Growth: 85%
HCT-116
  TGI: 1.57E−6
HCT-116; Homo sapiens
  GI50: 461 nM
  LC50: 3970 nM
HCT-116; Log10 Concentration −4.0
  Percent Growth: −100%
HCT-116; Log10 Concentration −5.0
  Percent Growth: −100%
HCT-116; Log10 Concentration −6.0
  Percent Growth: 24%
HCT-116; Log10 Concentration −7.0
  Percent Growth: 100%
HCT-116; Log10 Concentration −8.0
  Percent Growth: 101%
[1]
  Potency in suppressing cancer cell growth compared with OSU-A9: significantly higher potency
MDA-MB-231/ATCC
  TGI: 2.96E−6
MDA-MB-231/ATCC; Homo sapiens
  GI50: 1440 nM
MDA-MB-231/ATCC; [3]
  CC50: 6100 nM
MDA-MB-231/ATCC; Log10 Concentration −4.0
  Percent Growth: −78%
MDA-MB-231/ATCC; Log10 Concentration −5.0
  Percent Growth: −84%
MDA-MB-231/ATCC; Log10 Concentration −6.0
  Percent Growth: 75%
MDA-MB-231/ATCC; Log10 Concentration −7.0
  Percent Growth: 91%
MDA-MB-231/ATCC; Log10 Concentration −8.0
  Percent Growth: 98%
[2]; 450 ppm experimental diet
  Amount of diet consumed: 2.4 ± 0.3 g
[2]; [4]
  Liver percent body weight: 3.9±0.5%
  Liver weight (absolute): 1.3 ± 0.1 g
[2]; [5]
  ALP: 70.0 ± 14.6 iu/L
  ALT: 25.8 ± 8.0 iu/L
  AST: 69.6 ± 27.2 iu/L
  Albumin: 3.6 ± 0.2 g/dL
  BUN: 23.6 ± 2.9 mg/dL
  CK: 222.2 ± 144.5 iu/L
  Calcium: 10.7 ± 0.2 mg/dL
  Cholesterol: 193.4 ± 28.1 mg/dL
  Creatinine: 0.1 ± 0.0 mg/dL
  Globulin: 2.2 ± 0.1 g/dL
  Glucose: 301.8 ± 53.6 mg/dL
  Lymphocytes: 9.8 ± 3.1 ×10^3/μl
  Nucleated cells: 11.4 ± 3.7 ×10^3/μl
  PCV: 44.4 ± 1.1%
  Phosphorus: 6.5 ± 0.5 mg/dL
  Platelets: 327.2 ± 310.0 ×10^3/μl
  Potassium: 6.9 ± 0.4 mEq/L
  RBC: 10.3 ± 0.3 ×10^6/μl
  Segmented neutrophils: 1.3 ± 0.5 ×10^3/μl
  Total Bilirubin: 0.2 ± 0.0 mg/dL
  Total Protein: 5.8 ± 0.3 g/dL
[2]; 450 ppm in diet, in words
  Complete cell blood counts and serum chemistry profiles: none of the measured parameters are affected by drug treatment
KM12
  TGI: 2.97E−6
KM12; Homo sapiens
  GI50: 1620 nM
KM12; [3]
  CC50: 5450 nM
KM12; Log10 Concentration −4.0
  Percent Growth: −100%
KM12; Log10 Concentration −5.0
  Percent Growth: −100%
KM12; Log10 Concentration −6.0
  Percent Growth: 90%
KM12; Log10 Concentration −7.0
  Percent Growth: 97%
KM12; Log10 Concentration −8.0
  Percent Growth: 105%
SNB-75
  TGI: 2.70E−6
SNB-75; Homo sapiens
  GI50: 1400 nM
  LC50: 5190 nM
SNB-75; Log10 Concentration −4.0
  Percent Growth: −100%
SNB-75; Log10 Concentration −5.0
  Percent Growth: −100%
SNB-75; Log10 Concentration −6.0
  Percent Growth: 76%
SNB-75; Log10 Concentration −7.0
  Percent Growth: 83%
SNB-75; Log10 Concentration −8.0
  Percent Growth: 108%
OVCAR-5
  TGI: 3.04E−6
OVCAR-5; Homo sapiens
  GI50: 1680 nM
OVCAR-5; [3]
  CC50: 5510 nM
OVCAR-5; Log10 Concentration −4.0
  Percent Growth: −100%
OVCAR-5; Log10 Concentration −5.0
  Percent Growth: −100%
OVCAR-5; Log10 Concentration −6.0
  Percent Growth: 93%
OVCAR-5; Log10 Concentration −7.0
  Percent Growth: 92%
OVCAR-5; Log10 Concentration −8.0
  Percent Growth: 95%
